# Results: patent publication US10597388B2, “Pyridazinone herbicides” (FMC CORPORATION, priority 2014, dated 2020)
# Key:
# Assay type in all cases: in vivo
# [1] = test system: barnyardgrass (Echinochloa crus-galli); test: Test A greenhouse herbicide test, pre- and postemergence
# Method in brief: (§1)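 Visual injury ratings, 0 (no effect) to 100 (complete control), versus untreated plants after roughly 10 d in a greenhouse. Compounds, formulated in a surfactant-containing non-phytotoxic solvent, were sprayed on loam–sand soil after sowing (pre) or on one- to two-leaf plants 2–10 cm tall (post).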
# corn (Zea mays) = test: as above; settings: Postemergence
# Method in brief: as §1
# [2] = test system: foxtail, giant (giant foxtail, Setaria faberii); test: as above
# Method in brief: as §1
# kochia (Kochia scoparia) = test: as above
# Method in brief: as §1
# [3] = test system: pigweed (Amaranthus retroflexus); test: as above
# Method in brief: as §1
# [4] = test system: ragweed (common ragweed, Ambrosia elatior); test: as above
# Method in brief: as §1
# [5] = test system: ryegrass, Italian (Italian ryegrass, Lolium multiflorum); test: as above
# Method in brief: as §1
# [6] = test system: wheat (Triticum aestivum); test: as above; settings: Postemergence
# Method in brief: as §1
# [7] = test system: blackgrass (Alopecurus myosuroides); test: Test A greenhouse herbicide test, postemergence
# Method in brief: (§2)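 Scores are visual injury ratings from 0 (no effect) to 100 (complete control) versus untreated plants, taken roughly 10 d after treatment in the greenhouse. Treatment was postemergence, on one- to two-leaf plants 2–10 cm high growing in a loam soil/sand mix.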
# [8] = test system: galium (catchweed bedstraw, Galium aparine); test: Test A greenhouse herbicide test, postemergence
# Method in brief: as §2
# [9] = test system: barnyardgrass (Echinochloa crus-galli); test: Test C greenhouse herbicide test, pre- and postemergence; settings: for Plant response rating, Barnyardgrass: Postemergence
# Text: Seeds of plant species selected from blackgrass (Alopecurus myosuroides), ryegrass, Italian (Italian ryegrass, Lolium multiflorum), wheat (winter wheat, Triticum aestivum), galium (catchweed bedstraw, Galium aparine), corn (Zea mays), large crabgrass, large (large crabgrass, Digitaria sanguinalis), foxtail, giant (giant foxtail, Setaria faberii), johnsongrass (Sorghum halepense), lambsquarters (Chenopodium album), morningglory (Ipomoea coccinea), nutsedge, yellow (yellow nutsedge, Cyperus esculentus), pigweed (Amaranthus retroflexus), ragweed (common ragweed, Ambrosia elatior), soybean (Glycine max), barnyardgrass (Echinochloa crus-galli), oilseed rape (Brassica napus), waterhemp (common waterhemp, Amaranthus rudis), and velvetleaf (Abutilon theophrasti) were planted into a blend of loam soil and sand and treated preemergence with test chemicals formulated in a non-phytotoxic solvent mixture which included a surfactant.
# At the same time, plants selected from these crop and weed species and also chickweed (common chickweed, Stellaria media), kochia (Kochia scoparia), and oat, wild (wild oat, Avena fatua), were planted in pots containing Redi-Earth® planting medium (Scotts Company, 14111 Scottslawn Road, Marysville, Ohio 43041) comprising spaghnum peat moss, vermiculite, wetting agent and starter nutrients and treated with postemergence applications of test chemicals formulated in the same manner. Plants ranged in height from 2 to 18 cm (1- to 4-leaf stage) for postemergence treatments. Treated plants and controls were maintained in a greenhouse for 13 to 15 d, after which time all species were compared to controls and visually evaluated. Plant response ratings, summarized in Table C, are based on a scale of 0 to 100 where 0 is no effect and 100 is complete control. A dash (-) response means no test result.
# [10] = Postemergence, 125 g ai/ha, 0 to 100 scale where 0 is no effect and 100 is complete control
# [11] = Postemergence, 500 g ai/ha, visual rating after approx. 10 d, 0 to 100 scale (0 no effect, 100 complete control)
# [12] = Preemergence, 125 g ai/ha, 0 to 100 scale where 0 is no effect and 100 is complete control
# [13] = Preemergence, 500 g ai/ha, 0 to 100 scale where 0 is no effect and 100 is complete control
# [14] = 125 g ai/ha, 0 to 100 scale where 0 is no effect and 100 is complete control
# [15] = 500 g ai/ha, visual rating after approx. 10 d, 0 to 100 scale (0 no effect, 100 complete control)
smiles,measurement,setting,value
Cc1nn(C)c(=O)c(-c2cc(F)cc3ccccc23)c1OS(C)(=O)=O [Compound 115],"Plant response rating, Barnyardgrass",[1]; [10],20
same,"Plant response rating, Barnyardgrass",[1]; [11],90
same,Barnyardgrass plant response rating,[1]; [12],10
same,"Plant response rating, Barnyardgrass",[1]; [13],50
same,"Plant response rating, Corn",corn (Zea mays); [14],0
same,"Plant response rating, Corn",corn (Zea mays); [15],20
same,"Plant response rating, Foxtail, Giant",[2]; [10],20
same,"Plant response rating, Foxtail, Giant",[2]; [11],90
same,"Foxtail, Giant plant response rating",[2]; [12],30
same,"Plant response rating, Foxtail, Giant",[2]; [13],50
same,"Plant response rating, Kochia",kochia (Kochia scoparia); [10],70
same,"Plant response rating, Kochia",kochia (Kochia scoparia); [11],90
same,Kochia plant response rating,kochia (Kochia scoparia); [12],30
same,"Plant response rating, Kochia",kochia (Kochia scoparia); [13],90
same,"Plant response rating, Pigweed",[3]; [10],70
same,"Plant response rating, Pigweed",[3]; [11],90
same,Pigweed plant response rating,[3]; [12],70
same,"Plant response rating, Pigweed",[3]; [13],100
same,"Plant response rating, Ragweed",[4]; [10],80
same,"Plant response rating, Ragweed",[4]; [11],100
same,Ragweed plant response rating,[4]; [12],40
same,"Plant response rating, Ragweed",[4]; [13],90
same,"Plant response rating, Ryegrass, Italian",[5]; [10],100
same,"Plant response rating, Ryegrass, Italian",[5]; [11],100
same,"Ryegrass, Italian plant response rating",[5]; [12],100
same,"Plant response rating, Ryegrass, Italian",[5]; [13],100
same,"Plant response rating, Wheat",[6]; [14],20
same,"Plant response rating, Wheat",[6]; [15],30
same,"Plant response rating, Blackgrass",[7]; [14],20
same,"Plant response rating, Blackgrass",[7]; [15],70
same,"Plant response rating, Galium",[8]; [14],80
same,"Plant response rating, Galium",[8]; [15],100
same,"Plant response rating, Barnyardgrass","[9]; 31 g ai/ha, scale 0 to 100 (0 no effect, 100 complete control)",10
same,"Plant response rating, Barnyardgrass","[9]; 125 g ai/ha, scale 0 to 100, 0 is no effect, 100 is complete control",35
same,"Plant response rating, Barnyardgrass","[9]; 250 g ai/ha, scale 0 to 100, 0 no effect, 100 complete control, 13 to 15 d",45
same,Barnyardgrass plant response rating,"[9]; postemergence, 62 g ai/ha, scale 0 to 100, 0 no effect, 100 complete control",20
